# Source: patent US20180353483A1, “PHARMACEUTICAL COMPOSITIONS AND METHODS FOR INDOLEAMINE, 2, 3-DIOXYGENASE INHIBITION AND INDICATIONS THEREFOR” (Incyte Corporation, priority 2015, published 2018)
# Tests used:
# [1] = Unbound fraction in plasma; format: in vitro ADME
# [2] = Preclinical PK, renal excretion after IV dose, mice; format: in vivo
# [3] = male, dog, in vivo, 500 mg/kg/day
# [4] = Preclinical PK, beagle dogs; format: in vivo
# [5] = Dose-escalation study of Compound 1 pharmacokinetics in subjects with advanced malignancies (tablets of Formulations 1 and/or 3, fasted; food effect cohort); format: in vivo, human; conditions: for tmax: median
# Excerpt: Thus, Cmax, Cmin and Tmax were taken directly from the observed plasma concentration data or imputed in some cases. The terminal-phase disposition rate constant (λz) was estimated using a log-linear regression of the concentration data in the terminal disposition phase, and t1/2 was estimated as ln(2)/λz. AUC0-t and AUC0-τ was estimated using the linear trapezoidal rule for increasing concentrations and the log-trapezoidal rule for decreasing concentrations. At the PK steady-state, the apparent oral-dose clearance, CL/F, was estimated as Dose/AUC0-τ, and Vz/F was estimated as Dose/[AUC0-τ*λz].
# The log-transformed pharmacokinetic parameters were compared among the BID dose groups using a 1-factor ANOVA with the factor for dose. Dose-dependent exposure parameters (Cmax and AUC) were normalized to a common dose before statistical comparisons were made.
# The oral bioavailability (F) and systemic clearance (CL) were estimated. […] This method of estimation assumes near complete oral absorption and the liver being the primary organ for drug clearance. […] The above equation was modified to incorporate the term of Fa to accommodate an incomplete absorption: CL=(QH*Fa*CL/F)/(QH+Fa*CL/F).
# [6] = 50 mg BID, steady state, geometric mean
# [7] = 50 mg BID, steady state, mean ± SD
# [8] = 50 mg QD, steady state, mean ± SD
# [9] = 100 mg BID, steady state, geometric mean
# [10] = 100 mg BID, steady state, mean ± SD
# [11] = 300 mg BID, steady state, geometric mean
# [12] = 300 mg BID, steady state, mean ± SD
# [13] = 400 mg BID, steady state, geometric mean
# [14] = 400 mg BID, steady state, mean ± SD
# [15] = 500 mg BID, steady state, geometric mean
# [16] = 500 mg BID, steady state, mean ± SD
# [17] = 600 mg BID, steady state, geometric mean
# [18] = 600 mg BID, steady state, mean ± SD
smiles,measurement,setting,value
"NS(=O)(=O)NCCNc1nonc1C(=NO)Nc1ccc(F)c(Br)c1 [Compound 1, 4-({2-[(aminosulfonyl)amino]ethyl}amino)-N-(3-bromo-4-fluorophenyl)-N′-hydroxy-1,2,5-oxadiazole-3-carboximidamide]",unbound fraction in plasma,[1],3.1%
same,renal excretion of unchanged compound,[2],less than 3 % of IV dose
same,NOAEL unbound AUC0-24h,[3],7.9 µM·h
same,systemic clearance in percent hepatic blood flow,[4]; beagle dog,26%
same,fraction of oral dose absorbed (Fa),"[4]; beagle dogs, estimated from preclinical PK studies (not shown)",81%
same,renal excretion of unchanged compound,[4]; dogs,less than 3 % of IV dose
same,CL/F,[5]; [6],40.3 L/h
same,Cmax,[5]; [6],715 nM
same,AUC0-τ,[5]; [7],3.05 ± 1.36 µM·h
same,CL/F,[5]; [7],43.3 ± 19.2 L/h
same,Cmax,[5]; [7],742 ± 212 nM
same,Cmin,[5]; [7],84 ± 63 nM
same,t1/2,[5]; [7],2.4 ± 0.56 h
same,tmax,"[5]; 50 mg BID, steady state",2.0 h
same,trough concentrations,[5]; 50 mg QD,low and generally not quantifiable
same,CL/F,"[5]; 50 mg QD, steady state, geometric mean",73.0 L/h
same,AUC(0-t),[5]; [8],1.39 ± 0.256 µM·h
same,CL/F,[5]; [8],73.8 ± 14.7 L/h
same,Cmin,[5]; [8],0 ± 0 nM
same,t1/2,[5]; [8],2.4 ± 0.26 h
same,tmax,"[5]; 50 mg QD, steady state",2.0 h
same,CL/F,[5]; [9],42.4 L/h
same,Cmin,[5]; [9],171 nM
same,AUC0-τ,[5]; [10],5.77 ± 2.34 µM·h
same,CL/F,[5]; [10],45.8 ± 20.9 L/h
same,Cmax,[5]; [10],1230 ± 348 nM
same,Cmin,[5]; [10],201 ± 111 nM
same,t1/2,[5]; [10],3.3 ± 0.75 h
same,tmax,"[5]; 100 mg BID, steady state",2.0 h
same,CL/F,[5]; [11],70.2 L/h
same,Cmin,[5]; [11],251 nM
same,t1/2,[5]; [11],3.5 h
same,AUC0-τ,[5]; [12],9.78 ± 0.86 µM·h
same,CL/F,[5]; [12],70.4 ± 6.19 L/h
same,Cmax,[5]; [12],2480 ± 515 nM
same,Cmin,[5]; [12],287 ± 146 nM
same,t1/2,[5]; [12],3.9 ± 2.1 h
same,tmax,"[5]; 300 mg BID, steady state",2.0 h
same,CL/F,[5]; [13],51.8 L/h
same,Cmin,[5]; [13],523 nM
same,AUC0-τ,[5]; [14],19.6 ± 7.43 µM·h
same,CL/F,[5]; [14],62.3 ± 52.3 L/h
same,Cmax,[5]; [14],4390 ± 2020 nM
same,Cmin,[5]; [14],624 ± 339 nM
same,t1/2,[5]; [14],2.7 ± 0.62 h
same,tmax,"[5]; 400 mg BID, steady state",2.0 h
same,CL/F,[5]; [15],58.0 L/h
same,Cmin,[5]; [15],562 nM
same,AUC0-τ,[5]; [16],20.6 ± 6.82 µM·h
same,CL/F,[5]; [16],60.5 ± 19.1 L/h
same,Cmin,[5]; [16],604 ± 260 nM
same,t1/2,[5]; [16],2.4 ± 0.37 h
same,tmax,"[5]; 500 mg BID, steady state",2.0 h
same,effect of a high-fat meal on plasma exposures,"[5]; 600 mg BID, 1-way crossover ANOVA",not statistically significant
same,tmax,"[5]; 600 mg BID, food effect cohort, Fasted",2.0 h
same,decrease of geometric mean Cmax by a high-fat meal,"[5]; 600 mg BID, steady state",approximately 10%
same,increase of geometric mean AUC0-12h by a high-fat meal,"[5]; 600 mg BID, steady state",22%
same,CL/F,[5]; [17],63.5 L/h
same,Cmin,[5]; [17],731 nM
same,CL/F,[5]; [18],66.4 ± 18.6 L/h
same,Cmin,[5]; [18],932 ± 704 nM
same,t1/2,[5]; [18],3.3 ± 0.97 h
same,tmax,"[5]; 600 mg BID, steady state",2.0 h
same,highest steady-state mean unbound daily AUC0-24h (=2×AUC0-12h),[5]; 700 mg BID,2.2 µM·h
same,CL/F,"[5]; 700 mg BID, steady state, geometric mean",47.2 L/h
